Reference: patent US10770169B2, “Method of providing a treatment to a subject based on a dynamic pathway map” (THE REGENTS OF THE UNIVERSITY OF CALIFORNIA, priority 2010, dated 2020)

Tested on: panel of 55 breast cancer cell lines
Assay: Cell growth inhibition assay (Cell Titer Glo, 72 h, 9 doses; GI50, TGI, LC50)
Assay type: cell-based, human
Conditions: value is the negative log10 of mol/L

Question: For CNC(=O)c1c(F)cccc1Nc1nc(Nc2cc3c(cc2OC)CCN3C(=O)CN(C)C)nc2[nH]ccc12 [GSK1838705A], which GI50 (600MPE cell line, censored GI50 values) is on record?
Answer: 6.49

Question: And the GI50 (AU565 cell line, censored GI50 values)?
Answer: 5.63

Question: And the GI50 (BT20 cell line, censored GI50 values)?
Answer: 4.63

Question: And the GI50 (BT474 cell line, censored GI50 values)?
Answer: 5.08

Question: What about the GI50 (BT483 cell line, censored GI50 values) of the same compound?
Answer: 5.52

Question: And the GI50 (BT549 cell line, censored GI50 values)?
Answer: 5.21

Question: And the GI50 (CAMA1 cell line, censored GI50 values)?
Answer: 5.05

Question: What about the GI50 (HCC38 cell line, censored GI50 values) of the same compound?
Answer: 5.00

Question: And the GI50 (HCC70 cell line, censored GI50 values)?
Answer: 5.18

Question: And the GI50 (HCC202 cell line, censored GI50 values)?
Answer: 5.11

Question: What about the GI50 (HCC1143 cell line, censored GI50 values) of the same compound?
Answer: 5.55

Question: And the GI50 (HCC1187 cell line, censored GI50 values)?
Answer: 5.61

Question: And the GI50 (HCC1395 cell line, censored GI50 values)?
Answer: 5.28

Question: What about the GI50 (HCC1419 cell line, censored GI50 values) of the same compound?
Answer: 5.21

Question: And the GI50 (HCC1428 cell line, censored GI50 values)?
Answer: 5.79

Question: What about the GI50 (HCC1500 cell line, censored GI50 values) of the same compound?
Answer: 5.02

Question: What about the GI50 (HCC1806 cell line, censored GI50 values) of the same compound?
Answer: 4.27

Question: What about the GI50 (HCC1937 cell line, censored GI50 values) of the same compound?
Answer: 4.71

Question: And the GI50 (HCC1954 cell line, censored GI50 values)?
Answer: 5.08

Question: And the GI50 (HCC2185 cell line, censored GI50 values)?
Answer: 5.54

Question: What about the GI50 (HCC3153 cell line, censored GI50 values) of the same compound?
Answer: 5.26

Question: What about the GI50 (LY2 cell line, censored GI50 values) of the same compound?
Answer: 6.26

Question: What about the GI50 (MCF7 cell line, censored GI50 values) of the same compound?
Answer: 5.89

Question: What about the GI50 (MDAMB134VI cell line, censored GI50 values) of the same compound?
Answer: 5.06

Question: And the GI50 (MDAMB157 cell line, censored GI50 values)?
Answer: 5.05

Question: And the GI50 (MDAMB175VII cell line, censored GI50 values)?
Answer: 5.30

Question: What about the GI50 (MDAMB231 cell line, censored GI50 values) of the same compound?
Answer: 5.28

Question: What about the GI50 (MDAMB361 cell line, censored GI50 values) of the same compound?
Answer: 5.04

Question: What about the GI50 (MDAMB415 cell line, censored GI50 values) of the same compound?
Answer: 5.37

Question: And the GI50 (MDAMB436 cell line, censored GI50 values)?
Answer: 5.00

Question: And the GI50 (MDAMB453 cell line, censored GI50 values)?
Answer: 5.07

Question: And the GI50 (MDAMB468 cell line, censored GI50 values)?
Answer: 5.29

Question: What about the GI50 (SKBR3 cell line, censored GI50 values) of the same compound?
Answer: 5.16

Question: And the GI50 (SUM149PT cell line, censored GI50 values)?
Answer: 5.41

Question: What about the GI50 (SUM159PT cell line, censored GI50 values) of the same compound?
Answer: 5.46

Question: What about the GI50 (SUM185PE cell line, censored GI50 values) of the same compound?
Answer: 5.48

Question: And the GI50 (SUM225CWN cell line, censored GI50 values)?
Answer: 4.89

Question: What about the GI50 (SUM1315MO2 cell line, censored GI50 values) of the same compound?
Answer: 5.33

Question: What about the GI50 (cell line 600MPE) of the same compound?
Answer: 6.49

Question: And the GI50 (cell line AU565)?
Answer: 5.63

Question: What about the GI50 (cell line BT20) of the same compound?
Answer: 4.63

Question: For COc1ncc(-c2ccc3nccc(-c4ccnnc4)c3c2)cc1NS(=O)(=O)c1ccc(F)cc1F [GSK2126458A], which GI50 (cell line 600MPE, censored GI50 values) is on record?
Answer: 8.22

Question: What about the GI50 (cell line 600MPE) of the same compound?
Answer: 8.22

Question: And the GI50 (cell line AU565, censored GI50 values)?
Answer: 8.10

Question: What about the GI50 (cell line AU565) of the same compound?
Answer: 8.10

Question: What about the GI50 (cell line BT20, censored GI50 values) of the same compound?
Answer: 7.80

Question: And the GI50 (cell line BT20)?
Answer: 7.80

Question: And the GI50 (cell line BT474, censored GI50 values)?
Answer: 8.36

Question: And the GI50 (cell line BT483, censored GI50 values)?
Answer: 8.94

Question: What about the GI50 (cell line BT549, censored GI50 values) of the same compound?
Answer: 7.32

Question: What about the GI50 (cell line CAMA1, censored GI50 values) of the same compound?
Answer: 6.97

Question: What about the GI50 (cell line HCC38, censored GI50 values) of the same compound?
Answer: 7.62

Question: And the GI50 (cell line HCC70, censored GI50 values)?
Answer: 8.13

Question: What about the GI50 (cell line HCC202, censored GI50 values) of the same compound?
Answer: 9.03

Question: And the GI50 (cell line HCC1143, censored GI50 values)?
Answer: 7.43

Question: What about the GI50 (cell line HCC1187, censored GI50 values) of the same compound?
Answer: 8.30

Question: What about the GI50 (cell line HCC1395, censored GI50 values) of the same compound?
Answer: 7.31

Question: What about the GI50 (cell line HCC1419, censored GI50 values) of the same compound?
Answer: 8.75

Question: And the GI50 (cell line HCC1428, censored GI50 values)?
Answer: 7.48

Question: What about the GI50 (cell line HCC1500, censored GI50 values) of the same compound?
Answer: 7.11

Question: And the GI50 (cell line HCC1806, censored GI50 values)?
Answer: 7.54

Question: And the GI50 (cell line HCC1937, censored GI50 values)?
Answer: 7.57

Question: What about the GI50 (cell line HCC1954, censored GI50 values) of the same compound?
Answer: 7.97

Question: And the GI50 (cell line HCC3153, censored GI50 values)?
Answer: 7.36

Question: And the GI50 (cell line LY2, censored GI50 values)?
Answer: 7.93

Question: And the GI50 (cell line MCF7, censored GI50 values)?
Answer: 8.14

Question: What about the GI50 (cell line MDAMB134VI, censored GI50 values) of the same compound?
Answer: 7.95

Question: What about the GI50 (cell line MDAMB157, censored GI50 values) of the same compound?
Answer: 6.49

Question: What about the GI50 (cell line MDAMB175VII, censored GI50 values) of the same compound?
Answer: 8.29

Question: And the GI50 (cell line MDAMB231, censored GI50 values)?
Answer: 5.57

Question: What about the GI50 (cell line MDAMB361, censored GI50 values) of the same compound?
Answer: 7.46

Question: And the GI50 (cell line MDAMB436, censored GI50 values)?
Answer: 6.75

Question: And the GI50 (cell line MDAMB453, censored GI50 values)?
Answer: 8.28

Question: And the GI50 (cell line MDAMB468, censored GI50 values)?
Answer: 7.47

Question: What about the GI50 (cell line SKBR3, censored GI50 values) of the same compound?
Answer: 8.41

Question: And the GI50 (cell line SUM52PE, censored GI50 values)?
Answer: 8.46

Question: And the GI50 (cell line SUM149PT, censored GI50 values)?
Answer: 7.64

Question: What about the GI50 (cell line SUM159PT, censored GI50 values) of the same compound?
Answer: 7.52

Question: And the GI50 (cell line SUM1315MO2, censored GI50 values)?
Answer: 8.02

Question: What about the GI50 (cell line T47D, censored GI50 values) of the same compound?
Answer: 8.45

Question: And the GI50 (cell line UACC812, censored GI50 values)?
Answer: 8.67

Question: What about the GI50 (cell line UACC893, censored GI50 values) of the same compound?
Answer: 8.22

Question: And the GI50 (cell line ZR75B, censored GI50 values)?
Answer: 8.31

Question: What about the GI50 (cell line ZR751, censored GI50 values) of the same compound?
Answer: 8.07
